{"source": "paper PMC5146859", "about": "“Phase 1/2 study of pacritinib, a next generation JAK2/FLT3 inhibitor, in myelofibrosis or other myeloid malignancies” (Journal of Hematology & Oncology, 2016)", "test_system": "patients with advanced myeloid malignancies", "test": "Phase 1 safety: adverse events (NCIC-CTCAE version 3.0)", "format": "in vivo, human", "protocol": "At screening/baseline, patients underwent a medical history, physical examination, vital sign assessment, ECOG PS assessment, electrocardiogram, and assessment of hematologic parameters and blood chemistry. Hematology/blood chemistry, physical examinations, and vital sign assessments were performed throughout treatment. Toxicity was assessed using the National Cancer Institute Common Terminology Criteria for Adverse Events (NCIC-CTCAE), version 3.0, with relationship to treatment assigned by the investigator and were recorded from the first dose of pacritinib until 30 days after the last dose. Bone marrow biopsy and/or aspirate samples were drawn at baseline, on day 1 of cycle 4 and cycle 10, as clinically indicated, and at the termination visit. Disease response and progression were determined using the relevant International Working Group (IWG) criteria.\nThe efficacy-evaluable population included those patients with a baseline and corresponding follow-up value. The safety population included all enrolled patients who received ≥1 dose of pacritinib."}
{"smiles": "C1=C/COCc2cc(ccc2OCCN2CCCC2)Nc2nccc(n2)-c2cccc(c2)COC/1", "note": "[pacritinib, 11-(2-pyrrolidin-1-yl-ethoxy)-14,19-dioxa-5,7,26-triaza-tetracyclo[19.3.1.1(2,6). 1(8,12)]heptacosa-1(25),2(26),3,5,8,10,12(27),16,21,23-decaene]", "values": [{"measurement": "Grade 4 gastrointestinal AEs", "setting": "phase 1", "value": "No grade 4 gastrointestinal AEs occurred"}, {"measurement": "Relation of fatal AEs to treatment", "setting": "phase 1", "value": "None of the AEs were considered to be related to treatment"}, {"measurement": "Treatment-emergent AE: Abdominal distension", "setting": "phase 1, 100 mg, n = 3", "value": "0 n (%)"}, {"measurement": "Treatment-emergent AE: Abdominal pain", "setting": "phase 1, 100 mg, n = 3", "value": "1 (33.3) n (%)"}, {"measurement": "Treatment-emergent AE: Anemia", "setting": "phase 1, 100 mg, n = 3", "value": "0 n (%)"}, {"measurement": "Treatment-emergent AE: Any AE", "setting": "phase 1, 100 mg, n = 3", "value": "3 (100.0) n (%)"}, {"measurement": "Treatment-emergent AE: Asthenia", "setting": "phase 1, 100 mg, n = 3", "value": "2 (66.7) n (%)"}, {"measurement": "Treatment-emergent AE: Back pain", "setting": "phase 1, 100 mg, n = 3", "value": "1 (33.3) n (%)"}, {"measurement": "Treatment-emergent AE: Cardiac murmur", "setting": "phase 1, 100 mg, n = 3", "value": "1 (33.3) n (%)"}, {"measurement": "Treatment-emergent AE: Chills", "setting": "phase 1, 100 mg, n = 3", "value": "0 n (%)"}, {"measurement": "Treatment-emergent AE: Constipation", "setting": "phase 1, 100 mg, n = 3", "value": "2 (66.7) n (%)"}, {"measurement": "Treatment-emergent AE: Cough", "setting": "phase 1, 100 mg, n = 3", "value": "1 (33.3) n (%)"}, {"measurement": "Treatment-emergent AE: Decreased appetite", "setting": "phase 1, 100 mg, n = 3", "value": "2 (66.7) n (%)"}, {"measurement": "Treatment-emergent AE: Dehydration", "setting": "phase 1, 100 mg, n = 3", "value": "0 n (%)"}, {"measurement": "Treatment-emergent AE: Diarrhea", "setting": "phase 1, 100 mg, n = 3", "value": "2 (66.7) n (%)"}, {"measurement": "Treatment-emergent AE: Dizziness", "setting": "phase 1, 100 mg, n = 3", "value": "0 n (%)"}, {"measurement": "Treatment-emergent AE: Dyspnea", "setting": "phase 1, 100 mg, n = 3", "value": "2 (66.7) n (%)"}, {"measurement": "Treatment-emergent AE: Edema peripheral", "setting": "phase 1, 100 mg, n = 3", "value": "2 (66.7) n (%)"}, {"measurement": "Treatment-emergent AE: Epistaxis", "setting": "phase 1, 100 mg, n = 3", "value": "2 (66.7) n (%)"}, {"measurement": "Treatment-emergent AE: Fatigue", "setting": "phase 1, 100 mg, n = 3", "value": "1 (33.3) n (%)"}, {"measurement": "Treatment-emergent AE: Hyperbilirubinemia", "setting": "phase 1, 100 mg, n = 3", "value": "1 (33.3) n (%)"}, {"measurement": "Treatment-emergent AE: Hyperuricemia", "setting": "phase 1, 100 mg, n = 3", "value": "1 (33.3) n (%)"}, {"measurement": "Treatment-emergent AE: Insomnia", "setting": "phase 1, 100 mg, n = 3", "value": "1 (33.3) n (%)"}, {"measurement": "Treatment-emergent AE: Nausea", "setting": "phase 1, 100 mg, n = 3", "value": "0 n (%)"}, {"measurement": "Treatment-emergent AE: Neutropenia", "setting": "phase 1, 100 mg, n = 3", "value": "1 (33.3) n (%)"}, {"measurement": "Treatment-emergent AE: Night sweats", "setting": "phase 1, 100 mg, n = 3", "value": "1 (33.3) n (%)"}, {"measurement": "Treatment-emergent AE: Pain in extremity", "setting": "phase 1, 100 mg, n = 3", "value": "3 (100.0) n (%)"}, {"measurement": "Treatment-emergent AE: Petechiae", "setting": "phase 1, 100 mg, n = 3", "value": "2 (66.7) n (%)"}, {"measurement": "Treatment-emergent AE: Pyrexia", "setting": "phase 1, 100 mg, n = 3", "value": "1 (33.3) n (%)"}, {"measurement": "Treatment-emergent AE: Skin lesion", "setting": "phase 1, 100 mg, n = 3", "value": "0 n (%)"}, {"measurement": "Treatment-emergent AE: Thrombocytopenia", "setting": "phase 1, 100 mg, n = 3", "value": "1 (33.3) n (%)"}, {"measurement": "Treatment-emergent AE: Upper respiratory tract infection", "setting": "phase 1, 100 mg, n = 3", "value": "0 n (%)"}, {"measurement": "Treatment-emergent AE: Vomiting", "setting": "phase 1, 100 mg, n = 3", "value": "0 n (%)"}, {"measurement": "Treatment-emergent AE: Abdominal distension", "setting": "phase 1, 150 mg, n = 6", "value": "0 n (%)"}, {"measurement": "Treatment-emergent AE: Abdominal pain", "setting": "phase 1, 150 mg, n = 6", "value": "1 (16.7) n (%)"}, {"measurement": "Treatment-emergent AE: Anemia", "setting": "phase 1, 150 mg, n = 6", "value": "1 (16.7) n (%)"}, {"measurement": "Treatment-emergent AE: Any AE", "setting": "phase 1, 150 mg, n = 6", "value": "6 (100.0) n (%)"}, {"measurement": "Treatment-emergent AE: Asthenia", "setting": "phase 1, 150 mg, n = 6", "value": "2 (33.3) n (%)"}, {"measurement": "Treatment-emergent AE: Back pain", "setting": "phase 1, 150 mg, n = 6", "value": "2 (33.3) n (%)"}, {"measurement": "Treatment-emergent AE: Cardiac murmur", "setting": "phase 1, 150 mg, n = 6", "value": "0 n (%)"}, {"measurement": "Treatment-emergent AE: Chills", "setting": "phase 1, 150 mg, n = 6", "value": "2 (33.3) n (%)"}, {"measurement": "Treatment-emergent AE: Constipation", "setting": "phase 1, 150 mg, n = 6", "value": "2 (33.3) n (%)"}, {"measurement": "Treatment-emergent AE: Cough", "setting": "phase 1, 150 mg, n = 6", "value": "1 (16.7) n (%)"}, {"measurement": "Treatment-emergent AE: Decreased appetite", "setting": "phase 1, 150 mg, n = 6", "value": "2 (33.3) n (%)"}, {"measurement": "Treatment-emergent AE: Dehydration", "setting": "phase 1, 150 mg, n = 6", "value": "1 (16.7) n (%)"}, {"measurement": "Treatment-emergent AE: Diarrhea", "setting": "phase 1, 150 mg, n = 6", "value": "2 (33.3) n (%)"}, {"measurement": "Treatment-emergent AE: Dizziness", "setting": "phase 1, 150 mg, n = 6", "value": "0 n (%)"}, {"measurement": "Treatment-emergent AE: Dyspnea", "setting": "phase 1, 150 mg, n = 6", "value": "1 (16.7) n (%)"}, {"measurement": "Treatment-emergent AE: Edema peripheral", "setting": "phase 1, 150 mg, n = 6", "value": "2 (33.3) n (%)"}, {"measurement": "Treatment-emergent AE: Epistaxis", "setting": "phase 1, 150 mg, n = 6", "value": "1 (16.7) n (%)"}, {"measurement": "Treatment-emergent AE: Fatigue", "setting": "phase 1, 150 mg, n = 6", "value": "1 (16.7) n (%)"}, {"measurement": "Treatment-emergent AE: Hyperbilirubinemia", "setting": "phase 1, 150 mg, n = 6", "value": "1 (16.7) n (%)"}, {"measurement": "Treatment-emergent AE: Hyperuricemia", "setting": "phase 1, 150 mg, n = 6", "value": "1 (16.7) n (%)"}, {"measurement": "Treatment-emergent AE: Insomnia", "setting": "phase 1, 150 mg, n = 6", "value": "1 (16.7) n (%)"}, {"measurement": "Treatment-emergent AE: Nausea", "setting": "phase 1, 150 mg, n = 6", "value": "1 (16.7) n (%)"}, {"measurement": "Treatment-emergent AE: Neutropenia", "setting": "phase 1, 150 mg, n = 6", "value": "2 (33.3) n (%)"}, {"measurement": "Treatment-emergent AE: Night sweats", "setting": "phase 1, 150 mg, n = 6", "value": "0 n (%)"}, {"measurement": "Treatment-emergent AE: Pain in extremity", "setting": "phase 1, 150 mg, n = 6", "value": "0 n (%)"}, {"measurement": "Treatment-emergent AE: Petechiae", "setting": "phase 1, 150 mg, n = 6", "value": "2 (33.3) n (%)"}, {"measurement": "Treatment-emergent AE: Pyrexia", "setting": "phase 1, 150 mg, n = 6", "value": "2 (33.3) n (%)"}, {"measurement": "Treatment-emergent AE: Skin lesion", "setting": "phase 1, 150 mg, n = 6", "value": "4 (66.7) n (%)"}, {"measurement": "Treatment-emergent AE: Thrombocytopenia", "setting": "phase 1, 150 mg, n = 6", "value": "2 (33.3) n (%)"}, {"measurement": "Treatment-emergent AE: Upper respiratory tract infection", "setting": "phase 1, 150 mg, n = 6", "value": "2 (33.3) n (%)"}, {"measurement": "Treatment-emergent AE: Vomiting", "setting": "phase 1, 150 mg, n = 6", "value": "1 (16.7) n (%)"}, {"measurement": "Treatment-emergent AE: Abdominal distension", "setting": "phase 1, 200 mg, n = 9", "value": "2 (22.2) n (%)"}, {"measurement": "Treatment-emergent AE: Abdominal pain", "setting": "phase 1, 200 mg, n = 9", "value": "1 (11.1) n (%)"}, {"measurement": "Treatment-emergent AE: Anemia", "setting": "phase 1, 200 mg, n = 9", "value": "1 (11.1) n (%)"}, {"measurement": "Treatment-emergent AE: Any AE", "setting": "phase 1, 200 mg, n = 9", "value": "9 (100.0) n (%)"}, {"measurement": "Treatment-emergent AE: Asthenia", "setting": "phase 1, 200 mg, n = 9", "value": "1 (11.1) n (%)"}, {"measurement": "Treatment-emergent AE: Back pain", "setting": "phase 1, 200 mg, n = 9", "value": "0 n (%)"}, {"measurement": "Treatment-emergent AE: Cardiac murmur", "setting": "phase 1, 200 mg, n = 9", "value": "1 (11.1) n (%)"}, {"measurement": "Treatment-emergent AE: Chills", "setting": "phase 1, 200 mg, n = 9", "value": "0 n (%)"}, {"measurement": "Treatment-emergent AE: Constipation", "setting": "phase 1, 200 mg, n = 9", "value": "2 (22.2) n (%)"}, {"measurement": "Treatment-emergent AE: Cough", "setting": "phase 1, 200 mg, n = 9", "value": "1 (11.1) n (%)"}, {"measurement": "Treatment-emergent AE: Decreased appetite", "setting": "phase 1, 200 mg, n = 9", "value": "0 n (%)"}]}
